Like-named read-outs stand apart in the source and are kept apart here.
Tests used:
[1] = test system: P. yoelii (Kenya Strain) blood stage infection in mice; experiment: 4-day Peters test against murine malaria; type: in vivo; conditions: for 4-day Peters Test Results ED50 / 4-day Peters Test Results NRD (non-recrudescence dose) / 4-day Peters Test Results ED90: P. yoelii in mice, oral gavage in PEG400 on Days 1-4, prodrugs dosed on molar equivalency to parent drug
Description: On Day 5 a drop of blood was taken from the tail and a blood smear was prepared, fixed with methanol, and stained with Giemsa. The operator then examined the stained smear microscopically to determine percent parasitemia. Dosages of 0.0025, 0.005, 0.01, 0.03, 0.1, 0.3, 1.0 and 10 mg/kg/day were used for the experiment. […] In this model animals were inoculated exactly as for the 4-day test on Day 0 however drug was administered only on Day 1 while the operator made smears on Day 5 and again weekly thereafter for animals that remained aparasitemic. Animals that remained aparasitemic out to […] were scored as cures.
(§1) In Vivo Efficacy against Murine Malaria. The P. yoelii 4-day test monitors suppression of patent infection in female CF1 mice. The test began with the inoculation (iv) of parasitized erythrocytes (3.5×10^4/P. yoelli) (from a donor animal) on the first day of the experiment (D0). […] Initially the 3-biaryl-ELQs were tested at doses of 0.0025, 0.005, 0.01, 0.03, 0.1, 0.3, 1.0 and 10 mg/kg/day, including a vehicle-only (PEG400) control. After completion of drug treatment, a blood sample was collected (by pricking the tail vein) for determination of parasite burden beginning on the day after the final dose (D5). Percent parasitemia is assessed by direct microscopic analysis of Giemsa-stained blood smears. […] Animals with observable parasitemia following the experiment were euthanized; animals cleared of parasites from the bloodstream were observed daily with assessment of parasitemia performed weekly until day 30, at which point the animal(s) were scored as cured of infection. […] Non-linear regression analysis is used for objective determination of ED50's and ED90's from the accumulated data as well as the Non-Recrudescence Dose (NRD). The 4-day test protocol was reviewed and approved by the local IACUC board at the Portland VA Medical Center. Experiments were performed with 4 mice per group to ensure statistical accuracy.

[2] = test system: P. falciparum Tm90-C2B (atovaquone-resistant clinical isolate); experiment: In vitro antiplasmodial activity, SYBR Green I assay, Tm90-C2B; type: cell-based; conditions: Plasmodium falciparum, read-out: P. falciparum IC50 values, nM Tm90-C2B
Description: (§2) Rationale for Synthesis of a 3-Biaryl Version of ELQ-300. […] All of this information is stored in a database with information relating to chemical structure, physical chemical properties, cross resistance patterns, mammalian cell cytotoxicity, enzyme inhibitor profiles, and synthesis details. […] We employed the SyBr Green assay and the plates were incubated for 72 hours before harvesting^18, 19. […] Stock solutions were freshly prepared in DMSO.
(§3) Plasmodium falciparum Culture. Laboratory strains of P. falciparum were cultured in human erythrocytes by standard methods. The parasites were grown in culture medium with fresh human erythrocytes maintained at 2% hematocrit at 37° C. in low-oxygen conditions (5% O2, 5% CO2, […] balance N2). […] Cultures were maintained at less than 10% parasitemia by transfer of infected cells to fresh erythrocytes and culture medium every 3 or 4 days.
(§4) In vitro drug susceptibility assays. SYBR green I assay. In vitro antiplasmodial activity was assessed using a published SYBR Green I fluorescence-based method. The drugs were added to 96-well plates using 2-fold serial dilutions in complete medium. […] Asynchronous P. falciparum parasites were diluted with uninfected erythrocytes and added to the wells to give a final culture volume of 100 μl at 2% hematocrit and 0.2% parasitemia. […] The parasites were then lysed by adding 100 μl of SYBR green I lysis buffer containing 0.2 μl/ml SYBR green I dye (10,000×) in 20 mM Tris (pH 7.5), 5 mM EDTA, 0.008% (wt/vol) saponin, and 0.08% (vol/vol) Triton X-100. The plates were incubated at room temperature for an hour in the dark. […] If the IC50 value fell outside of the initial tested range then the range was adjusted up or down and the assay was repeated.

[3] = molecular target: T1, human liver cytochrome bc1 complex (Homo sapiens, UniProt P00156); conditions: data taken from Nilsen et al., 2013 (a) or Frueh et al., 2017 (b); cited from earlier work
T1 construct: human host cytochrome bc1 complex isolated from human liver tissue; from tissue; host or cells: human liver tissue

[4] = test system: P. falciparum D6 strain (drug sensitive); experiment: In vitro antiplasmodial activity, SYBR Green I assay, D6 strain; type: cell-based, Plasmodium falciparum; conditions: for IC50: Plasmodium falciparum, read-out: P. falciparum IC50 values, nM D6
Description: as §2, §3, §4

[5] = test system: P. falciparum D1 clone (ELQ-300 resistant); experiment: microbe, parasite or virus in culture; type: cell-based; conditions: Plasmodium falciparum, 72 h, read-out: P. falciparum IC50 values, nM D1
[6] = test system: P. yoelii blood stage infection in mice; experiment: In vivo single-dose cure against murine malaria; conditions: for Single dose cure: lowest single dose that cures all 4 mice, P. yoelii, prodrugs dosed on molar equivalency to parent drug
Description: Animals that remained aparasitemic out to […] were scored as cures.
In Vivo Single-Dose Efficacy against Murine Malaria. The effectiveness of selected 3-biarylELQs and prodrugs was assessed vs. the blood stage infection for single dose cures. Mice are infected iv with 3.5×10^4 P. yoelii infected RBCs as described for the 4-day test above. Drug administration occurred on the day after inoculation (Day 1). Test agents were dissolved in PEG-400 and administered ig once. On the 5th day blood films were prepared and % parasitemia was assessed. Animals remaining parasite-free for 30 days after drug administration were considered cured. The initial dosing range was: 0.5, 1, 2.5, 5, 10 mg/kg, including a control. Experiments were performed with 4 mice per group to ensure statistical accuracy. The reported parameter for these studies is the lowest single dose that provides a cure to all 4 animals in the group.

[7] = test system: P. falciparum Dd2 strain (multidrug resistant); experiment: microbe, parasite or virus in culture; type: cell-based, Plasmodium falciparum; conditions: Plasmodium falciparum, DD2, 72 h, read-out: P. falciparum IC50 values, nM Dd2
Description: as §2, §3, §4

[8] = molecular target: T2, P. falciparum cytochrome bc1 complex (Plasmodium falciparum, UniProt Q02768); conditions: data taken from Nilsen et al., 2013 (a) or Frueh et al., 2017 (b); cited from earlier work
T2 construct: endogenous in cells
T2 sequence (Q02768 1-376): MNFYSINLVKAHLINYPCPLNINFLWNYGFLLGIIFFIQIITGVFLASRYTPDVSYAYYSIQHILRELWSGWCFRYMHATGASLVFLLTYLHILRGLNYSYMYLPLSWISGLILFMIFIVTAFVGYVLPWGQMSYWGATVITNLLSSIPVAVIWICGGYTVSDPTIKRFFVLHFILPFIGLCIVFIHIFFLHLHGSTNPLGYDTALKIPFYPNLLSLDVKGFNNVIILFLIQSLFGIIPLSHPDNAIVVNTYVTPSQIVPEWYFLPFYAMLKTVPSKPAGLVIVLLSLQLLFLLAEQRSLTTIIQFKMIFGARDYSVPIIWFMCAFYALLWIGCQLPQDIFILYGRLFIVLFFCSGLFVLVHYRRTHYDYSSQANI

[9] = molecular target: T1, human liver cytochrome bc1 complex; experiment: Inhibition of human cytochrome bc1 complex; type: biochemical; conditions: complex isolated from human liver tissue
Excerpt: Human Cytochrome bc1 Assays.

[10] = HepG2 cytotoxicity, TiterGlo ATP luminescence, galactose medium; type: cell-based, human; conditions: human
Description: (§5) […]. Of course, enhanced potency is desirable only if unaccompanied by enhanced toxicity. […] […]. The incubation period for these experiments was 48 hours.

HepG2 cells = experiment: as above; type: cell-based, human
Description: as §5

[11] = molecular target: T2, P. falciparum cytochrome bc1 complex; experiment: biochemical; conditions: cytochrome bc1 activity from P. falciparum mitochondria
Excerpt: Isolation of Plasmodium falciparum Mitochondria and Ubiquinol-Cytochrome c Oxidoreductase Assay.

[12] = Murine microsomal metabolic stability; conditions: for half-life at 1 μM: pH 7.4, T1/2 (minutes)
Description: Ketanserin served as an internal standard for the metabolic rate of a known drug with known intermediate stability.
Imipramine or Osalmid were used as internal standards, and ketanserin was used as a control drug with intermediate stability.

[13] = Appearance, behaviour and weight observations in the in vivo efficacy-testing model; conditions: mice, at any dose level of the efficacy tests
Description: as §1

[14] = Tm90-C2B strain, 72 h incubation, averages of quadruplicate with (95% confidence intervals)
[15] = D6 strain, 72 h incubation, averages of quadruplicate with (95% confidence intervals)
[16] = mouse, pooled liver microsomes, murine liver microsomes 0.5 mg/ml, 37° C., NADPH, 45 minutes

Row | SMILES | 4-day Peters Test Results ED50 [1] [mg/kg/day] | 4-day Peters Test Results NRD (non-recrudescence dose) [1] [mg/kg/day] | IC50 [2, 14] [nM] | IC50 [4, 15] [nM] | IC50 [5] [nM] | Single dose cure ([6]; dose on Day 1) [mg/kg/day] | IC50 [7] [nM] | 4-day Peters Test Results ED90 [1] [mg/kg/day] | half-life at 1 μM [12, 16] [h] | also measured
1 | O=C1C(O)=C([C@H]2CC[C@H](c3ccc(Cl)cc3)CC2)C(=O)c2ccccc21 [Atovaquone, reference compound] | 0.1 | 10 | > 1000 | 0.08 | 0.4 | 10 | 0.4 |  |  | IC50 [3]: 460 nM
2 | CCN(CC)CCCC(C)Nc1ccnc2cc(Cl)ccc12 (stereo not drawn) [CQ, chloroquine, reference compound] |  | >64 |  |  |  | >64 |  |  |  | 
3 | CCOC(=O)OCOc1c(-c2ccc(Oc3ccc(OC(F)(F)F)cc3)cc2)c(C)nc2cc(OC)c(Cl)cc12 [ELQ-331, reference compound] |  | 1.0 |  |  |  | 3 |  | 0.05 |  | IC50 [8]: 5300 nM; IC50 [3]: > 10000 nM
4 | COc1cc2[nH]c(C)c(-c3ccc(-c4ccc(OC(F)(F)F)cc4)cc3)c(=O)c2cc1Cl [ELQ-596, 6-chloro-7-methoxy-2-methyl-3-(4′-(trifluoromethoxy)-[1,1′-biphenyl]-4-yl)quinolin-4(1H)-one] | 0.01 | 0.3 |  |  |  |  | 0.4 | 0.021 | > 66.7 | IC50 [9]: > 10000 nM; EC50 at 48 h ([10]; HepG2, galactose medium, 48 hours, read-out: EC50 (cytotoxicity)): > 10000 nM; EC50 (HepG2 cells; medium with galactose instead of glucose): > 10000 nM; IC50 ([2]; TM90, 72 h): 0.2 nM; IC50 [11]: 0.1 nM; improvement of IC50 values over ELQ-300 ([4]; D6 and Dd2 strains as well as C2B): 8- to 10 fold; IC50 ([4]; D6, 72 h): 0.3 nM; CLint scaled at 1 μM ([12]; mouse, pooled liver microsomes, pH 7.4): 1.15 mL/min/kg; T1/2 (minutes) ([12]; murine liver microsomes 0.5 mg/ml, 37° C., NADPH, 45 minutes): 4,260 minutes
5 | CCOC(=O)OCOc1c(-c2ccc(-c3ccc(OC(F)(F)F)cc3)cc2)c(C)nc2cc(OC)c(Cl)cc12 [ELQ-598, ((6-chloro-7-methoxy-2-methyl-3-(4′-(trifluoromethoxy)-[1,1′-biphenyl]-4-yl)quinolin-4-yl)oxy)methyl ethyl carbonate] | 0.006 | 0.1 | 0.8 | 1.5 |  | ≤0.5 |  | 0.01 |  | IC50 [9]: > 10000 nM; ED50, ED90 and NRD lower than for ELQ-300 and ELQ-331 ([1]; 4-day test): roughly 3 fold; EC50 at 48 h [10]: > 10000 nM; P. falciparum cytochrome bc1, nM [11]: only feeble inhibitory activity; appearance, behavioral or weight changes after dosing [13]: no appearance, behavioral or weight changes; lowest fully protective single dose cure ([6]; P. yoelii in mice, dose on Day 1, lowest dose tested to date, as parent drug equivalent): 0.5 mg/kg; more effective as a single dose cure compared directly to ELQ-331 ([6]; blood stage malaria infections in mice): at least 6 times; lowest fully protective single dose cure, mg/kg of prodrug ([6]; same result expressed as mass of prodrug): 0.6 mg/kg
6 | COc1ccc2c(=O)c(-c3ccc(-c4ccc(OC(F)(F)F)cc4)cc3)c(C)[nH]c2c1 [ELQ-685, 7-Methoxy-2-methyl-3-(4′-(trifluoromethoxy)-[1,1′-biphenyl]-4-yl)quinolin-4(1H)-one] |  |  | 5.2 | 5.8 | 3.5 |  | 8.5 |  | > 66.7 | 
7 | CCOC(=O)OCOc1c(-c2ccc(-c3ccc(OC(F)(F)F)cc3)cc2)c(C)nc2cc(OC)ccc12 [ELQ-695, Ethyl (((7-methoxy-2-methyl-3-(4′-(trifluoromethoxy)-[1,1′-biphenyl]-4-yl)quinolin-4-yl)oxy)methyl) carbonate] | 0.2 | 3.7 | 10.1 | 20.9 | 8.4 |  | 22.3 | 0.3 | > 66.7 | 
8 | C=C(C)[C@H]1Cc2c(ccc3c2O[C@@H]2COc4cc(OC)c(OC)cc4[C@@H]2C3=O)O1 [rotenone, reference compound] |  |  |  |  |  |  |  |  |  | EC50 (cytotoxicity) (HepG2 cells; HepG2, galactose medium, 48 hours): quite cytotoxic

From US20250353828A1, “SUBSTITUTED BIARYL ENDOCHIN-LIKE QUINOLONES WITH ENHANCED ANTIPARASITIC ACTIVITY” (Oregon Health & Science University, priority 2022, published 2025)
